Data reported in PMC10649247, “Rapid Colloidal Gold Immunoassay for Pharmacokinetic Evaluation of Vancomycin in the Cerebrospinal Fluid and Plasma of Beagle Dogs” (Sensors (Basel, Switzerland), 2023).
Structures can show the parent of a compound that is named as a salt.

Columns and labels:
[1] = tested on: VAN antibodies (monoclonal antibodies derived from mouse ascites); experiment: Colloidal gold competitive immunoassay test strip (calibration curve and cross-reactivity); assay type: binding; details: for CR (%) = [IC50 of VAN/IC50 of the tested compound] × 100%: cross-reactivity of the colloidal gold test strip; for IC50 (ng/mL), cross-reactivity test: compounds at 0, 0.1, 1, 10, 100, 1000 and 10,000 ng/mL
Method: Colloidal gold nanoparticles, integral for inducing a visible color change at the test line of the assay strips, were synthesized by boiling 100 mL of a 0.01% HAuCl4 aqueous solution, followed by the addition of 1% sodium citrate aqueous solution [46, 47, 48]. […] Subsequently, VAN antibodies were conjugated to these gold nanoparticles. The VAN antibodies used were monoclonal antibodies derived from mouse ascites with a molecular weight of 150 kD. They were purchased from Shenzhen KeJie Industrial Development Co., Ltd. (Shenzhen, China). The efficacy of this conjugation relied on a trifecta of forces: ionic attractions between the negatively charged gold particles and the positively charged proteins, hydrophobic interactions, and sulfur bonds, particularly from thiol groups that linked two regions of the Fc segment of the antibody to the gold surface.
A sequence of critical steps must be followed for fabricating colloidal gold immunochromatographic test strips. Initially, a substrate, typically comprising paper or a film, was precoated with antibodies specifically tailored for detecting the target molecule. Subsequently, colloidal gold nanoparticles were synthesized by reducing gold salts and coupled with antibodies. This coupling was facilitated by the combination of ionic, hydrophobic, and sulfur bond interactions. The resultant antibody-labeled colloidal gold solution was then applied to the designated test line area on the substrate. Then, a control line was established to validate the operational integrity of the strip. Following these applications, the strip underwent a drying process, was trimmed to manageable dimensions, and was hermetically sealed in protective packaging to mitigate the risk of environmental contamination.
The intensity of the color on the test line indicated the signal value. We quantified this signal using a smartphone camera in combination with the ImageJ software (Fiji ImageJ for Mac, 2.3.0 version). […] We used ImageJ to extract the gray values from lines drawn perpendicular to both the control and test lines. […] Therefore, the effective signal, represented as B, is determined by the absolute difference in gray value between the test line and its adjacent area.
The test line is coated with a competitive VAN–BSA antigen, and the control line is coated with […]. Upon application of the sample to the sample pad, the sample flows through the colloidal gold pad to interact with the gold-labeled antibodies. It then progresses through the test and control lines before being absorbed into the absorbent paper. The appearance of a visible line in the test area signifies a negative result for VAN (Figure 1(b1)). […] Regardless of the presence or absence of VAN, a red control line should always appear when the test is operating correctly. Otherwise, the results are invalid. Figure 1c depicts the four scenarios that may arise during testing.
Under optimized assay conditions, we used in-house-prepared VAN standard samples to validate the performance metrics of the test strips. The concentrations of the standard samples were 0, 1, 2, 4, 8, 16, 32, 64, 128, 256, 512, and 1024 ng/mL. For the analysis, we applied 4–5 drops of each sample onto the test strips and allowed them to air-dry for 10 min. We observed an inverse correlation between the VAN concentration and the test line signal intensity. We then proceeded to construct a calibration curve to elucidate the correlation between the optical signals (designated as B/B0) and the respective VAN concentrations. In this context, B represents the optical signals for each standard concentration of VAN, while B0 signifies the optical signal at a zero-concentration baseline. […]

[2] = Pharmacokinetic study of VAN in plasma of beagle dogs (LC-MS); assay type: in vivo; details: single intravenous dose 12 mg/kg, average of three dogs
Method: (§1) Animal Dosing and Sample Collection: The choice of using beagle dogs for the pharmacokinetic studies of VAN in CSF and plasma is driven by their physiological similarities to humans, which make them a suitable model for predicting human pharmacokinetics. Three male beagle dogs, each weighing approximately 11 kg and aged 10 months, were utilized for pharmacokinetic studies. Both the acquisition of the beagle dogs and the sample collection were conducted by Beijing Sinogenetic Biotechnology Co., Ltd. (Beijing, China). The animal protocols employed for this research were reviewed and approved by Beijing Sinogenetic Biotechnology Co., Ltd. (XNY-20230524001). The beagle dogs were anesthetized and subsequently administered a single intravenous dose of a pre-prepared 50 mg/mL VAN hydrochloride solution at a dosage level of 12 mg/kg, with the injection time lasting approximately 2–3 s. CSF and plasma samples were collected at predetermined time points: predose (0 min) and postdose at intervals of 5 min, 10 min, 30 min, 1 h, 2 h, 4 h, 8 h, and 24 h. […]
(§2) An HPLC–MS method was established to precisely quantify VAN levels in CSF and plasma samples collected from beagle dogs. […] The methodological rigor ensured a high degree of specificity and sensitivity in VAN quantification, effectively fulfilling the objectives of this study.

[3] = Pharmacokinetic study of VAN in CSF of beagle dogs (LC-MS); assay type: in vivo; details: single intravenous dose 12 mg/kg, average of three dogs
Method: as §1, §2

Row | Compound | CR (%) = [IC50 of VAN/IC50 of the tested compound] × 100% [1] [%] | IC50 (ng/mL), cross-reactivity test ([1]; test strip) | LOD, concentration of VAN giving a 10% inhibition of the maximum absorbance ([1]; test strip calibration curve, read after 10 min, n = 3) [ng/mL] | inhibitory concentration 50% (IC50) from the calibration curve (B/B0 against VAN concentration) ([1]; test strip, standard samples 0-1024 ng/mL, read after 10 min, smartphone/ImageJ gray value, n = 3) [mg/L] | peak concentration of VAN in plasma [2] [µg/mL] | concentration of VAN in plasma within ~4 h ([2]; ~4 h post dose) | time at which VAN concentration in CSF reaches its maximum [3]
1 | NCC[C@H](O)C(=O)N[C@@H]1C[C@H](N)[C@@H](O[C@H]2O[C@H](CN)[C@@H](O)[C@H](O)[C@H]2O)[C@H](O)[C@H]1O[C@H]1O[C@H](CO)[C@@H](O)[C@H](N)[C@H]1O [Amikacin, amikacin] | <0.5 | >10^4 ng/mL | – | – | – | – | –
2 | CN[C@H]1C(=O)N[C@@H]2Cc3ccc(cc3)Oc3cc4cc(c3O[C@@H]3O[C@H](C(=O)O)[C@@H](O)[C@H](O)[C@H]3NC(=O)CCCCCCCCC(C)C)Oc3ccc(cc3Cl)[C@@H](O)[C@@H]3NC(=O)[C@H](NC(=O)[C@@H]4NC(=O)[C@@H](NC2=O)c2cc(cc(O)c2Cl)Oc2cc1ccc2O)c1ccc(O)c(c1)-c1c(O[C@H]2O[C@H](CO)[C@@H](O)[C@H](O)[C@@H]2O)cc(O)cc1[C@@H](C(=O)NCCCN(C)C)NC3=O [Dalbavancin, dalbavancin] | <0.5 | >10^4 ng/mL | – | – | – | – | –
3 | C[C@@H](O)[C@H]1C(=O)N2C(C(=O)O)=C(S[C@@H]3CN[C@H](C(=O)N(C)C)C3)[C@H](C)[C@H]12 [Meropenem, meropenem] | <0.5 | >10^4 ng/mL | – | – | – | – | –
4 | CN[C@H](CC(C)C)C(=O)N[C@H]1C(=O)N[C@@H](CC(N)=O)C(=O)N[C@H]2C(=O)N[C@H]3C(=O)N[C@H](C(=O)N[C@H](C(=O)O)c4cc(O)cc(O)c4-c4cc3ccc4O)[C@H](O[C@H]3C[C@](C)(N)[C@@H](O)[C@H](C)O3)c3ccc(c(Cl)c3)Oc3cc2cc(c3O[C@@H]2O[C@H](CO)[C@@H](O)[C@H](O)[C@H]2O[C@H]2C[C@](C)(NCc3ccc(-c4ccc(Cl)cc4)cc3)[C@@H](O)[C@H](C)O2)Oc2ccc(cc2Cl)[C@H]1O [Oritavancin, oritavancin] | <0.5 | >10^4 ng/mL | – | – | – | – | –
5 | CCCCCCCCCCNCCN[C@@]1(C)C[C@H](O[C@H]2[C@H](Oc3c4cc5cc3Oc3ccc(cc3Cl)[C@@H](O)[C@@H](NC(=O)[C@@H](CC(C)C)NC)C(=O)N[C@@H](CC(N)=O)C(=O)N[C@H]5C(=O)N[C@H]3C(=O)N[C@H](C(=O)N[C@H](C(=O)O)c5cc(O)c(CNCP(=O)(O)O)c(O)c5-c5cc3ccc5O)[C@H](O)c3ccc(c(Cl)c3)O4)O[C@H](CO)[C@@H](O)[C@@H]2O)O[C@@H](C)[C@H]1O [Telavancin, telavancin] | <0.5 | >10^4 ng/mL | – | – | – | – | –
6 | CN[C@H](CC(C)C)C(=O)N[C@H]1C(=O)N[C@@H](CC(N)=O)C(=O)N[C@H]2C(=O)N[C@H]3C(=O)N[C@H](C(=O)N[C@H](C(=O)O)c4cc(O)cc(O)c4-c4cc3ccc4O)[C@H](O)c3ccc(c(Cl)c3)Oc3cc2cc(c3O[C@@H]2O[C@H](CO)[C@@H](O)[C@H](O)[C@H]2O[C@H]2C[C@](C)(N)[C@H](O)[C@H](C)O2)Oc2ccc(cc2Cl)[C@H]1O [VAN, Vancomycin hydrochloride] | 100 | – | 10.3 | 0.0445 | 40 | below 1 µg/mL | ~ 2 h
7 | teicoplanin | <0.5 | >10^4 ng/mL | – | – | – | – | –
